Experimental data published in patent publication US20220259164A1, “USE OF AMINOTHIOL COMPOUNDS AS CEREBRAL NERVE OR HEART PROTECTIVE AGENT” (SHANGHAI KECHOW PHARMA, INC., priority 2019, published 2022).
Where “and” joins values, the source holds several entries; their conditions need not be identical. Equal values may be shown once. Where a SMILES comes first, the peptide text is derived from it. [ ]: non-standard residue; d: D form. NMeC = CN[C@@H](CS)C(=O)O

Experiments:
[1] = system: SD rat cerebral ischemia reperfusion injury model (MCAO); assay: TTC staining and cerebral infarction area in rat ischemic stroke model (MCAO); type: in vivo; conditions: for Cerebral infarction area: individual rats
Procedure: Healthy male SPF grade SD rats (body weight 250-300 g) were selected. (1) The rats were anesthetized, the skin on the neck was prepared, and the body temperature was maintained at 37±0.5° C. (2) A midline neck incision was made to expose the right common carotid artery, internal carotid artery and external carotid artery. A 6-0 silk thread was used to ligate the distal end of the external carotid artery at 4 mm from the bifurcation of the common carotid artery, another 6-0 silk thread was inserted at the external carotid artery, and a slipknot was tied near the bifurcation of the common carotid artery. (3) An arterial clamp was used to clamp the common carotid artery. A small opening was cut on the external carotid artery at 3 mm from the bifurcation of the common carotid artery, and a 0.33 mm diameter nylon thread with a treated head end was inserted through the small opening, entered the internal carotid artery, and was inserted inward to the middle cerebral artery, wherein the insertion depth of the nylon thread was about 16±1 mm from the bifurcation of the common carotid artery. (4) The thread embolism was removed 90 min after ischemia, the proximal end of the external artery was ligated with a 6-0 silk thread, the neck wound was sutured with a 3-0 silk thread, the wound was disinfected with povidone iodine, the rats were placed on a heating pad, and after being awake, they were placed in a constant temperature rearing box for rearing. […] After the rats were anesthetized, the brain tissues were taken from the rats, placed in a refrigerator and frozen at -20° C. for 30 min. 1% TTC (W/V) was prepared with PBS and placed in a water bath at 37° C. until the TTC was dissolved, and the frozen brain tissue was sliced, placed in 10 ml of the TTC solution and incubated at 37° C. for 10 min. The brain slices were turned from time to time to make the tissue evenly stained. Normal brain tissue was bright red after staining, whereas the infarction region was pale white in color or light white in a black and white image. In addition, a software was used to measure and statistically analyze the infarction area. In a manner same as in Example 1, experimental animals were selected, except that the experiment was divided into seven groups (i.e., groups […], and G, among which groups C, D, and E were given different dosages of administration from Example 1, group F was given edaravone, and group G was given amifostine).

[2] = system: cisplatin-induced nephrotoxicity in SD rats; assay: Cisplatin-induced nephrotoxicity in SD rats: blood creatinine and urea nitrogen; type: in vivo, rat; conditions: for Effect on cisplatin-induced increase of blood creatinine and urea nitrogen (in words): 30 min prior to cisplatin 5 mg/kg i.p.: compound B 200 mg/kg i.p., compound A 800 mg/kg p.o., amifostine 200 mg/kg i.p., day 5; for Creatinine / Urea nitrogen: whole blood day 5, individual rats
Procedure: Healthy male SPF grade SD rats (body weight 250-300 g) were selected. Control group: PBS […] Cisplatin+compound B group: 5 mg/kg i.p.+compound B at 200 mg/kg i.p., with compound B being administered 30 min prior to cisplatin administration Cisplatin+amifostine group: 5 mg/kg i.p.+AMI at 200 mg/kg i.p., with AMI being administered 30 min prior to cisplatin administration Cisplatin+compound A group: 5 mg/kg i.p.+compound A at 800 mg/kg p.o., with compound A being administered 30 min prior to cisplatin administration (1) The SD rats used in the experiment were weighed, labeled, and evenly divided into 5 groups, with 3 SD rats in each group. (2) The compound B, compound A, and AMI groups were respectively administered at the planned concentrations. […] (3) The rats were weighed and recorded daily, and on day 5, blood was taken from the intraocular canthus of the SD rats and placed in an anticoagulant tube.

[3] = Body weight of cisplatin-induced SD rats; type: in vivo, rat; conditions: 30 min prior to cisplatin 5 mg/kg i.p.: compound B 200 mg/kg i.p., compound A 800 mg/kg p.o., amifostine 200 mg/kg i.p.; weighed daily
Procedure: Healthy male SPF grade SD rats (body weight 250-300 g) were selected. Cisplatin+compound B group: 5 mg/kg i.p.+compound B at 200 mg/kg i.p., with compound B being administered 30 min prior to cisplatin administration Cisplatin+amifostine group: 5 mg/kg i.p.+AMI at 200 mg/kg i.p., with AMI being administered 30 min prior to cisplatin administration Cisplatin+compound A group: 5 mg/kg i.p.+compound A at 800 mg/kg p.o., with compound A being administered 30 min prior to cisplatin administration (1) The SD rats used in the experiment were weighed, labeled, and evenly divided into 5 groups, with 3 SD rats in each group. (2) The compound B, compound A, and AMI groups were respectively administered at the planned concentrations. […] (3) The rats were weighed and recorded daily, and on day 5, blood was taken from the intraocular canthus of the SD rats and placed in an anticoagulant tube.

[4] = system: rat myocardial infarction model (coronary ligation 30 min, reperfusion); assay: Myocardial infarction model: myocardial infarction range (TTC staining); type: in vivo; conditions: for Infarction range (%): x ± s, n = 10; for Improvement rate (%) of myocardial infarction range: compared with model group
Procedure: 1. The rats were grouped and administered according to the following methods (2) Compound B (i.v.) at 100 mg/kg (3) Compound A (i.v.) at 100 mg/kg (4) Compound A (oral) at 500 mg/kg (5) Isosorbide mononitrate injection (i.v.) at 1 mg/kg (equivalent to clinical equivalent dose). There were 10 rats in each group, and the rats were administered intravenously immediately after 30 min of ischemia and reperfusion, i.v. 10% 1 min+i.v. drip 90% 30 min. The administration volume was 2 ml/rat. Compound A (oral) at 500 mg/kg was administered intragastrically 2 h after reperfusion when the animal was awake, and the administration volume was 10 ml/kg. Note: Compounds A and B used in this example were in the form of hydrochloride salts thereof. Given intraperitoneal injection of 3% sodium pentobarbital at 60 mg/kg for general anesthesia, the rats were fixed on an operating table in the supine position. The surgical field of the anterolateral chest was depilated and routinely disinfected. The skin and muscular layer were cut open, purse-string suture was performed on the muscular layer, the chest was opened on the left at the fourth intercostal space, and the heart was pulled out with a ring-shaped retractor. At the position of the anterior descending coronary artery 3-4 mm below the left atrial appendage, a 6/0 damage-free silk thread was threaded, and a nylon thread with a diameter of 1.6 mm was juxtaposed and ligated together with the anterior descending coronary artery, while the other end was left outside the body for later use. The heart was placed back into the chest cavity, the air in the chest cavity was emptied, and the chest cavity was closed. 30 min after ligation, the nylon thread was carefully removed for reperfusion. Compared with the normal lead II electrocardiogram (ECG-II), ST segment elevation in ECG-II by 0.1 mV or more 30 min after coronary artery ligation was regarded as successful ischemia.

[5] = Example 2 group D: compound A (trifluoroacetate) 400 mg/kg p.o. 2.5 h before reperfusion, 400 mg/kg
[6] = Example 2 group E: compound A (trifluoroacetate) 800 mg/kg p.o. 2.5 h before reperfusion, 800 mg/kg
[7] = compound A (trifluoroacetate) 800 mg/kg p.o. 30 min prior to cisplatin 5 mg/kg i.p.
[8] = Example 2 group C: compound B (trifluoroacetate) 100 mg/kg i.p. 5 min before reperfusion, 100 mg/kg
[9] = compound B (trifluoroacetate) 200 mg/kg i.p. 30 min prior to cisplatin 5 mg/kg i.p.

**Q.** With CNC(=O)[C@H](CS)NC(=O)[C@H](CS)NC [Compound A, (R)-3-mercapto-N—((R)-3-mercapto-1-(methylamino)-1-oxoprop-2-yl)-2-(methylamino)propionamide] (H-[NMeC]-Cys-NHMe) as the molecule, how does the “% Improvement of cerebral infarction area” value (from here on “% Improvement”) ([1]; Example 1 group E: compound A (trifluoroacetate) 1600 mg/kg p.o. 2.5 h before reperfusion, 1600 mg/kg) read?
**A.** Its value is 83.9%.

**Q.** What about the Cerebral infarction area ([1]; Example 1 group E: compound A (trifluoroacetate) 1600 mg/kg p.o. 2.5 h before reperfusion, 24 h, 1600 mg/kg) of the same molecule?
**A.** The Cerebral infarction area was 40.19 mm^3 and 26.33 mm^3 and 9.18 mm^3.

**Q.** And the “% Improvement” value [1, 5]?
**A.** Its value is 72.97%.

**Q.** And the Cerebral infarction area [1, 5]?
**A.** Its Cerebral infarction area is 25.16 mm^3 and 11.23 mm^3 and 20.59 mm^3 and 15.48 mm^3 and 38.04 mm^3 and 82.75 mm^3.

**Q.** And the “% Improvement” value [1, 6]?
**A.** The value was 87.32%.

**Q.** And the Cerebral infarction area [1, 6]?
**A.** The Cerebral infarction area was 14.23 mm^3 and 0 mm^3 (2×) and 16.93 mm^3 and 12.31 mm^3 and 47.18 mm^3.

**Q.** And the “Effect on cisplatin-induced increase of blood creatinine and urea nitrogen (in words)” value [2]?
**A.** Its value is “significantly reduce the increased blood creatinine and urea nitrogen levels”.

**Q.** What about the Creatinine [2, 7] of the same molecule?
**A.** Its Creatinine is 28.4 µmol/L and 18.1 µmol/L and 17.1 µmol/L.

**Q.** What about the Urea nitrogen [2, 7] of the same molecule?
**A.** Its Urea nitrogen is 7.68 mmol/L and 7.16 mmol/L and 10.21 mmol/L.

**Q.** And the “Change in body weight of cisplatin-induced SD rats” value [3]?
**A.** Its value is “the degree of decrease was significantly better than that of the cisplatin group”.

**Q.** What about the “Infarction range (%)” value ([4]; compound A (hydrochloride) i.v. 100 mg/kg after 30 min ischemia and reperfusion) of the same molecule?
**A.** Its value is 30.5 ± 11 %.

**Q.** And the “Improvement rate (%) of myocardial infarction range” value (shortened to “Improvement rate (%)”) ([4]; compound A (hydrochloride) i.v. 100 mg/kg)?
**A.** Its value is 24.5%.

**Q.** What about the “Infarction range (%)” value ([4]; compound A (hydrochloride) oral 500 mg/kg 2 h after reperfusion) of the same molecule?
**A.** The value was 28.9 ± 12.2 %.

**Q.** What about the “Improvement rate (%)” value ([4]; compound A (hydrochloride) oral 500 mg/kg) of the same molecule?
**A.** Its value is 28.5%.

**Q.** Which “% Improvement” value ([1]; Example 1 group C: compound B (trifluoroacetate) 200 mg/kg i.p. 5 min before reperfusion, 200 mg/kg) does the source give for CNC(=O)[C@H](CS)NC(=O)[C@H](CS)NC(=O)[C@H](CS)NC [Compound B, (R)-3-mercapto-N—((R)-3-mercapto-1-(((R)-3-mercapto-1-(methylamino)-1-oxoprop-2-yl)amino)-1-oxoprop-2-yl)-2-(methylamino)propionamide] (H-[NMeC]-Cys-Cys-NHMe) here?
**A.** Its value is 62.5%.

**Q.** And the Cerebral infarction area ([1]; Example 1 group C: compound B (trifluoroacetate) 200 mg/kg i.p. 5 min before reperfusion, 24 h, 200 mg/kg)?
**A.** Its Cerebral infarction area is 67.44 mm^3 and 67.69 mm^3 and 32.84 mm^3 and 23.4 mm^3 and 105.9 mm^3.

**Q.** What about the “% Improvement” value ([1]; Example 1 group D: compound B (trifluoroacetate) 200 mg/kg i.p. during ischemia and 200 mg/kg i.p. 5 min before reperfusion) of the same molecule?
**A.** Its value is 44.4%.

**Q.** What about the Cerebral infarction area ([1]; Example 1 group D: compound B (trifluoroacetate) 200 mg/kg i.p. during ischemia and 200 mg/kg i.p. 5 min before reperfusion, 24 h) of the same molecule?
**A.** Its Cerebral infarction area is 67.53 mm^3 and 105.5 mm^3.

**Q.** What about the “% Improvement” value [1, 8] of the same molecule?
**A.** Its value is 59.5%.

**Q.** And the Cerebral infarction area [1, 8]?
**A.** Its Cerebral infarction area is 0 mm^3 and 32.568 mm^3 and 45.956 mm^3 and 21.529 mm^3 and 104.008 mm^3 and 85.208 mm^3.

**Q.** What about the “Effect on cisplatin-induced increase of blood creatinine and urea nitrogen (in words)” value [2] of the same molecule?
**A.** Its value is “significantly reduce the increased blood creatinine and urea nitrogen levels”.

**Q.** And the Creatinine [2, 9]?
**A.** Its Creatinine is 18.1 µmol/L and 14.7 µmol/L and 30.4 µmol/L.

**Q.** And the Urea nitrogen [2, 9]?
**A.** The Urea nitrogen was 7.28 mmol/L and 5.71 mmol/L and 6.77 mmol/L.

**Q.** What about the “Change in body weight of cisplatin-induced SD rats” value [3] of the same molecule?
**A.** The value was “the body weight increased rather than decrease”.

**Q.** What about the “Infarction range (%)” value ([4]; compound B (hydrochloride) i.v. 100 mg/kg after 30 min ischemia and reperfusion) of the same molecule?
**A.** Its value is 30.2 ± 8.2 %.

**Q.** And the “Improvement rate (%)” value ([4]; compound B (hydrochloride) i.v. 100 mg/kg)?
**A.** The value was 25.2%.
